{
  "source": "the supplement of paper PMC11451515",
  "assay_in_all_cases": "AUC of viability dose-response curve (% viability x log10 dose units); higher = less sensitive",
  "conditions_in_all_cases": "48 h",
  "key": {"P12-Ichikawa": {"tested_on": "P12-Ichikawa", "procedure,_shortened": "(§1)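 Library compounds in DMSO were applied for 48 h at 37°C at 11 threefold doses (47 μM to 0.79 nM) to medium-adapted leukemia cells in 1536-well plates holding 500 or 1000 cells/well. Luminescence from CellTiter-Glo One was normalised plate by plate against DMSO and cell-free wells. Area under the curve came from trapezoidal integration of a log-logistic fit, after scaling curves that rose above full viability and discarding those that failed quality control. The fit had four parameters and used log10 doses.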"}, "NOMO1": {"tested_on": "NOMO1", "procedure,_shortened": "as §1"}, "SEM cells": {"tested_on": "SEM cells", "procedure,_shortened": "as §1"}, "[1]": {"conditions": "RPMI 5 mM glucose + 10% dialyzed FBS"}},
  "data": [
    {"smiles": "C[C@H]1O[C@H](C[C@H](O)[C@@H]1O)O[C@H]2[C@@H](O)C[C@@H](O[C@@H]2C)O[C@H]3[C@@H](O)C[C@@H](O[C@@H]3C)O[C@H]4CC[C@@]5(C)[C@H](CC[C@@H]6[C@@H]5C[C@@H](O)[C@]7(C)[C@H](CC[C@]67O)C/8=C/C(=O)OC8)C4", "values": [
      {"measurement": "AUC of viability dose-response curve", "setting": "P12-Ichikawa; HPLM + 10% dialyzed FBS", "result": 208},
      {"measurement": "AUC of viability dose-response curve", "setting": "P12-Ichikawa; RPMI 5 mM glucose + 10% FBS", "result": 242},
      {"measurement": "AUC of viability dose-response curve", "setting": "P12-Ichikawa; [1]", "result": 227},
      {"measurement": "AUC of viability dose-response curve", "setting": "NOMO1; HPLM + 10% dialyzed FBS", "result": 226},
      {"measurement": "AUC of viability dose-response curve", "setting": "NOMO1; RPMI 5 mM glucose + 10% FBS", "result": 280},
      {"measurement": "AUC of viability dose-response curve", "setting": "NOMO1; [1]", "result": 253},
      {"measurement": "AUC of viability dose-response curve", "setting": "SEM cells; HPLM + 10% dialyzed FBS", "result": 200},
      {"measurement": "AUC of viability dose-response curve", "setting": "SEM cells; RPMI 5 mM glucose + 10% FBS", "result": 250},
      {"measurement": "AUC of viability dose-response curve", "setting": "SEM cells; [1]", "result": 239}
    ]},
    {"smiles": "CCOC1=CC=CC=C1N\\2C(=O)C3=C(C=CC=C3)\\N=C2C(C)N4CCN(CC4)C(=O)COC5=CC=C(Cl)C=C5", "note": "(stereo not drawn)", "values": [
      {"measurement": "AUC of viability dose-response curve", "setting": "P12-Ichikawa; HPLM + 10% dialyzed FBS", "result": 303},
      {"measurement": "AUC of viability dose-response curve", "setting": "P12-Ichikawa; RPMI 5 mM glucose + 10% FBS", "result": 327},
      {"measurement": "AUC of viability dose-response curve", "setting": "P12-Ichikawa; [1]", "result": 320},
      {"measurement": "AUC of viability dose-response curve", "setting": "NOMO1; HPLM + 10% dialyzed FBS", "result": 304},
      {"measurement": "AUC of viability dose-response curve", "setting": "NOMO1; RPMI 5 mM glucose + 10% FBS", "result": 330},
      {"measurement": "AUC of viability dose-response curve", "setting": "NOMO1; [1]", "result": 357},
      {"measurement": "AUC of viability dose-response curve", "setting": "SEM cells; HPLM + 10% dialyzed FBS", "result": 323},
      {"measurement": "AUC of viability dose-response curve", "setting": "SEM cells; RPMI 5 mM glucose + 10% FBS", "result": 280},
      {"measurement": "AUC of viability dose-response curve", "setting": "SEM cells; [1]", "result": 297}
    ]},
    {"smiles": "NC(=O)OCC(COC(N)=O)c1ccccc1", "values": [
      {"measurement": "AUC of viability dose-response curve", "setting": "P12-Ichikawa; HPLM + 10% dialyzed FBS", "result": 465},
      {"measurement": "AUC of viability dose-response curve", "setting": "P12-Ichikawa; RPMI 5 mM glucose + 10% FBS", "result": 460},
      {"measurement": "AUC of viability dose-response curve", "setting": "P12-Ichikawa; [1]", "result": 465},
      {"measurement": "AUC of viability dose-response curve", "setting": "NOMO1; HPLM + 10% dialyzed FBS", "result": 434},
      {"measurement": "AUC of viability dose-response curve", "setting": "NOMO1; RPMI 5 mM glucose + 10% FBS", "result": 465},
      {"measurement": "AUC of viability dose-response curve", "setting": "NOMO1; [1]", "result": 456},
      {"measurement": "AUC of viability dose-response curve", "setting": "SEM cells; HPLM + 10% dialyzed FBS", "result": 455},
      {"measurement": "AUC of viability dose-response curve", "setting": "SEM cells; RPMI 5 mM glucose + 10% FBS", "result": 448},
      {"measurement": "AUC of viability dose-response curve", "setting": "SEM cells; [1]", "result": 471}
    ]},
    {"smiles": "OC[C@H]1O[C@@H]2[C@@H](OC\\3=N\\C(=N)\\C=C/[N@@]23)[C@@H]1O", "values": [
      {"measurement": "AUC of viability dose-response curve", "setting": "P12-Ichikawa; HPLM + 10% dialyzed FBS", "result": 248},
      {"measurement": "AUC of viability dose-response curve", "setting": "P12-Ichikawa; RPMI 5 mM glucose + 10% FBS", "result": 241},
      {"measurement": "AUC of viability dose-response curve", "setting": "P12-Ichikawa; [1]", "result": 251},
      {"measurement": "AUC of viability dose-response curve", "setting": "NOMO1; HPLM + 10% dialyzed FBS", "result": 348},
      {"measurement": "AUC of viability dose-response curve", "setting": "NOMO1; RPMI 5 mM glucose + 10% FBS", "result": 374},
      {"measurement": "AUC of viability dose-response curve", "setting": "NOMO1; [1]", "result": 344},
      {"measurement": "AUC of viability dose-response curve", "setting": "SEM cells; HPLM + 10% dialyzed FBS", "result": 277},
      {"measurement": "AUC of viability dose-response curve", "setting": "SEM cells; RPMI 5 mM glucose + 10% FBS", "result": 264},
      {"measurement": "AUC of viability dose-response curve", "setting": "SEM cells; [1]", "result": 223}
    ]},
    {"smiles": "CCN1CCCC1CNC(=O)c1cc([S+](N)(=O)[O-])ccc1OC", "note": "(stereo not drawn)", "values": [
      {"measurement": "AUC of viability dose-response curve", "setting": "P12-Ichikawa; HPLM + 10% dialyzed FBS", "result": 476},
      {"measurement": "AUC of viability dose-response curve", "setting": "P12-Ichikawa; RPMI 5 mM glucose + 10% FBS", "result": 467},
      {"measurement": "AUC of viability dose-response curve", "setting": "P12-Ichikawa; [1]", "result": 469},
      {"measurement": "AUC of viability dose-response curve", "setting": "NOMO1; HPLM + 10% dialyzed FBS", "result": 467},
      {"measurement": "AUC of viability dose-response curve", "setting": "NOMO1; RPMI 5 mM glucose + 10% FBS", "result": 470},
      {"measurement": "AUC of viability dose-response curve", "setting": "NOMO1; [1]", "result": 455},
      {"measurement": "AUC of viability dose-response curve", "setting": "SEM cells; HPLM + 10% dialyzed FBS", "result": 453},
      {"measurement": "AUC of viability dose-response curve", "setting": "SEM cells; RPMI 5 mM glucose + 10% FBS", "result": 460},
      {"measurement": "AUC of viability dose-response curve", "setting": "SEM cells; [1]", "result": 470}
    ]},
    {"smiles": "CCN1CCN(C(=O)Cc2ccc(Nc3ncc(F)c(Nc4ccc(C(=O)Nc5ccccc5Cl)cc4)n3)cc2)CC1", "values": [
      {"measurement": "AUC of viability dose-response curve", "setting": "P12-Ichikawa; HPLM + 10% dialyzed FBS", "result": 405},
      {"measurement": "AUC of viability dose-response curve", "setting": "P12-Ichikawa; RPMI 5 mM glucose + 10% FBS", "result": 418},
      {"measurement": "AUC of viability dose-response curve", "setting": "P12-Ichikawa; [1]", "result": 413},
      {"measurement": "AUC of viability dose-response curve", "setting": "NOMO1; HPLM + 10% dialyzed FBS", "result": 420},
      {"measurement": "AUC of viability dose-response curve", "setting": "NOMO1; RPMI 5 mM glucose + 10% FBS", "result": 430},
      {"measurement": "AUC of viability dose-response curve", "setting": "NOMO1; [1]", "result": 420},
      {"measurement": "AUC of viability dose-response curve", "setting": "SEM cells; HPLM + 10% dialyzed FBS", "result": 402},
      {"measurement": "AUC of viability dose-response curve", "setting": "SEM cells; RPMI 5 mM glucose + 10% FBS", "result": 383},
      {"measurement": "AUC of viability dose-response curve", "setting": "SEM cells; [1]", "result": 386}
    ]},
    {"smiles": "COc1cc(N2CCC(N(C)C)CC2)ccc1Nc1ncc(Cl)c(Nc2ccccc2P(C)(C)=O)n1", "values": [
      {"measurement": "AUC of viability dose-response curve", "setting": "P12-Ichikawa; HPLM + 10% dialyzed FBS", "result": 338},
      {"measurement": "AUC of viability dose-response curve", "setting": "P12-Ichikawa; RPMI 5 mM glucose + 10% FBS", "result": 361},
      {"measurement": "AUC of viability dose-response curve", "setting": "P12-Ichikawa; [1]", "result": 380},
      {"measurement": "AUC of viability dose-response curve", "setting": "NOMO1; HPLM + 10% dialyzed FBS", "result": 333},
      {"measurement": "AUC of viability dose-response curve", "setting": "NOMO1; RPMI 5 mM glucose + 10% FBS", "result": 374},
      {"measurement": "AUC of viability dose-response curve", "setting": "NOMO1; [1]", "result": 375},
      {"measurement": "AUC of viability dose-response curve", "setting": "SEM cells; HPLM + 10% dialyzed FBS", "result": 288},
      {"measurement": "AUC of viability dose-response curve", "setting": "SEM cells; RPMI 5 mM glucose + 10% FBS", "result": 294},
      {"measurement": "AUC of viability dose-response curve", "setting": "SEM cells; [1]", "result": 287}
    ]}
  ]
}
